Experimental data: ChEMBL document CHEMBL3885881, “DrugMatrix”

Species on record: Rattus norvegicus
Test: DrugMatrix - Regimen: Daily Repeat
Assay type: toxicity, organism-based, Sprague-Dawley
Parameters: regimen Daily Repeat, gender Male, age 6-8 weeks
Settings: in vivo, sc, route mini-PUMP - SUBCUTANEOUS, vehicle 100 % SALINE
[1] = 2 mg/kg, 72 h, tissue Blood, dose level High, time 3 day
[2] = 2 mg/kg, 72 h, tissue Plasma, dose level High, time 3 day
[3] = 2 mg/kg, 120 h, tissue Blood, dose level High, time 5 day
[4] = 2 mg/kg, 120 h, tissue Plasma, dose level High, time 5 day
[5] = 2 mg/kg, […], tissue Blood, dose level High, time 14 day
[6] = 2 mg/kg, […], tissue Plasma, dose level High, time 14 day

## CC(C)NCC(O)c1ccc(O)c(O)c1 (centres undefined) [ISOPROTERENOL]
0 mg/kg, […], tissue Blood, dose level Control, time 14 day
  NUCLEATED RED BLOOD CELLS: 0.17 /100WBC
0 mg/kg, […], tissue Plasma, dose level Control, time 14 day
  CREATINE PHOSPHOKINASE: 262 u/L
[1]
  ABSOLUTE BASOPHIL: 95 cells/µL
  ABSOLUTE EOSINOPHIL: 95 cells/µL
  ABSOLUTE LYMPHOCYTE: 13000 cells/µL
  ABSOLUTE MONOCYTE: 420 cells/µL
  BASOPHIL: 0.5%
  EOSINOPHIL: 0.55%
  ERYTHROCYTE COUNT: 6.36 x10E6/uL
  HEMATOCRIT: 43.4%
  HEMOGLOBIN: 13 G/DL
  LEUKOCYTE COUNT: 17.82 x10E3/uL
  LYMPHOCYTE: 73.55%
  MEAN CORPUSCULAR HEMOGLOBIN: 20.5 pg
  MEAN CORPUSCULAR HEMOGLOBIN CONCENTRATION: 30.05 G/DL
  MEAN CORPUSCULAR VOLUME: 68.3 fL
  MONOCYTE: 2.35%
  NEUTROPHIL: 22.05%
  PLATELET COUNT: 1170.5 x10E3/uL
[2]
  ALANINE AMINOTRANSFERASE: 32 u/L
  ALBUMIN: 3.9 G/DL
  ALKALINE PHOSPHATASE: 349 u/L
  ASPARTATE AMINOTRANSFERASE: 75.5 u/L
  BLOOD UREA NITROGEN: 17 mg/dL
  CARBON DIOXIDE: 40.5 mmol/L
  CHLORIDE: 107 MEQ/L
  CHOLESTEROL: 87.5 mg/dL
  CREATINE PHOSPHOKINASE: 449.5 u/L
  CREATININE: 0.55 mg/dL
  GLUCOSE: 141 mg/dL
  LIPASE: 47.5 u/L
  PHOSPHORUS: 9.6 mg/dL
  POTASSIUM: 6.05 MEQ/L
  SODIUM: 150.5 MEQ/L
  TOTAL BILIRUBIN: 0.3 mg/dL
  TOTAL PROTEIN: 6.25 G/DL
  URIC ACID: 0.8 mg/dL
[3]
  ABSOLUTE BASOPHIL: 50 cells/µL
  ABSOLUTE EOSINOPHIL: 110 cells/µL
  ABSOLUTE LYMPHOCYTE: 10400 cells/µL
  ABSOLUTE MONOCYTE: 350 cells/µL
  BASOPHIL: 0.37%
  EOSINOPHIL: 0.83%
  ERYTHROCYTE COUNT: 6.25 x10E6/uL
  HEMATOCRIT: 42.73%
  HEMOGLOBIN: 12.9 G/DL
  LEUKOCYTE COUNT: 14.26 x10E3/uL
  LYMPHOCYTE: 72.93%
  MEAN CORPUSCULAR HEMOGLOBIN: 20.63 pg
  MEAN CORPUSCULAR HEMOGLOBIN CONCENTRATION: 30.17 G/DL
  MEAN CORPUSCULAR VOLUME: 68.4 fL
  MONOCYTE: 2.5%
  NEUTROPHIL: 22.8%
  PLATELET COUNT: 1375.33 x10E3/uL
[4]
  ALANINE AMINOTRANSFERASE: 41.67 u/L
  ALBUMIN: 3.77 G/DL
  ALKALINE PHOSPHATASE: 331.33 u/L
  ASPARTATE AMINOTRANSFERASE: 78 u/L
  BLOOD UREA NITROGEN: 15.33 mg/dL
  CARBON DIOXIDE: 39.67 mmol/L
  CHLORIDE: 108 MEQ/L
  CHOLESTEROL: 85.67 mg/dL
  CREATINE PHOSPHOKINASE: 183 u/L
  CREATININE: 0.57 mg/dL
  GLUCOSE: 168.33 mg/dL
  LIPASE: 99 u/L
  PHOSPHORUS: 10.23 mg/dL
  POTASSIUM: 5.97 MEQ/L
  SODIUM: 150 MEQ/L
  TOTAL BILIRUBIN: 0.33 mg/dL
  TOTAL PROTEIN: 6.03 G/DL
  URIC ACID: 1 mg/dL
[5]
  ABSOLUTE BASOPHIL: 60 cells/µL
  ABSOLUTE EOSINOPHIL: 110 cells/µL
  ABSOLUTE LYMPHOCYTE: 11600 cells/µL
  ABSOLUTE MONOCYTE: 300 cells/µL
  BASOPHIL: 0.42%
  EOSINOPHIL: 0.72%
  ERYTHROCYTE COUNT: 6.69 x10E6/uL
  HEMATOCRIT: 44.4%
  HEMOGLOBIN: 14.28 G/DL
  LEUKOCYTE COUNT: 14.87 x10E3/uL
  LYMPHOCYTE: 78.08%
  MEAN CORPUSCULAR HEMOGLOBIN: 21.3 pg
  MEAN CORPUSCULAR HEMOGLOBIN CONCENTRATION: 32.12 G/DL
  MEAN CORPUSCULAR VOLUME: 66.4 fL
  MONOCYTE: 1.94%
  NEUTROPHIL: 18.22%
  PLATELET COUNT: 1074.6 x10E3/uL
[6]
  ALANINE AMINOTRANSFERASE: 40.6 u/L
  ALBUMIN: 4 G/DL
  ALKALINE PHOSPHATASE: 424.4 u/L
  ASPARTATE AMINOTRANSFERASE: 98.2 u/L
  BLOOD UREA NITROGEN: 19.2 mg/dL
  CARBON DIOXIDE: 38.8 mmol/L
  CHLORIDE: 105.8 MEQ/L
  CHOLESTEROL: 73.4 mg/dL
  CREATINE PHOSPHOKINASE: 274.2 u/L
  CREATININE: 0.8 mg/dL
  GLUCOSE: 132 mg/dL
  LACTATE DEHYDROGENASE: 214.4 u/L
  LIPASE: 11.8 u/L
  PHOSPHORUS: 9.98 mg/dL
  POTASSIUM: 6.02 MEQ/L
  SODIUM: 149.2 MEQ/L
  TOTAL BILIRUBIN: 0.36 mg/dL
  TOTAL PROTEIN: 6.46 G/DL
  URIC ACID: 0.62 mg/dL
[…], 72 h, tissue Blood, dose 4.2 mg/Kg, dose level M1, time 3 day
  ABSOLUTE BASOPHIL: 0 CELLS/uL
